What all share (assay type): cell-based
The test system of test [1] is Wnt activity (Sp5-Luc reporter, SW480 colon carcinoma cells). Description: Screening assay for Wnt activity: Sp5-Luc reporter gene assay in SW480 cells. The settings on record: Homo sapiens; for inhibition at 10 µM: 10 μM compound, read-out: percent inhibition at 10 μM (given for EC50 of >10 μM); for EC50: overnight incubation, 10-point dose-response from 10 μM. The text has this: The screening assay for Wnt activity is described as follows. Reporter cell lines can be generated by stably transducing cancer cell lines (e.g., colon cancer) or primary cells (e.g., IEC-6 intestinal cells) with a lentiviral construct that includes a Wnt-responsive promoter driving expression of the firefly luciferase gene.
SW480 colon carcinoma cells were transduced with a lentiviral vector expressing luciferase with a human Sp5 promoter consisting of a sequence of eight TCF/LEF binding sites. SW480 cells stably expressing the Sp5-Luc reporter gene and a hygromycin resistance gene were selected by treatment with 150 μg/mL of hygromycin for 7 days. These stably transduced SW480 cells were expanded in cell culture and used for all further screening activities. Each compound was dissolved in DMSO as a 10 mM stock and used to prepare compound source plates. Serial dilution (1:3, 10-point dose-response curves starting from 10 μM) and compound transfer was performed using the ECHO 550 (Labcyte, Sunnyvale, Calif.) into 384-well white solid bottom assay plates (Greiner Bio-One) with appropriate DMSO backfill for a final DMSO concentration of 0.1%. For Sp5-Luc reporter gene assays, the cells were plated at 4,000 cells/well in 384-well plates with medium containing 1% fetal bovine serum and incubated overnight at 37° C. and 5% CO2. Following incubation, 20 μl of BrightGlo luminescence reagent (Promega) was added to each well of the 384-well assay plates. The plates were placed on an orbital shaker for 2 min and then luminescence was quantified using the Envision (Perkin Elmer) plate reader. Readings were normalized to DMSO only treated cells, and normalized activities were utilized for EC50 calculations using the dose-response log (inhibitor) vs. response -variable slope (four parameters) nonlinear regression feature available in GraphPad Prism 5.0 (or Dotmatics). For EC50 of >10 μM, the percent inhibition at 10 μM is provided.

For the next test, the system named is SW480 colon cancer cells. Briefly: Cell viability assay (CellTiter-Blue), four days. Particulars: Homo sapiens, 96 h; for EC50: CellTiter-Blue cell viability; for inhibition at 10 µM: read-out: percent inhibition at 10 μM (given for EC50 of >10 μM). On the procedure:
Representative compounds were screened using the following assay procedure to assess the effect on cell viability as described below.
Each compound was dissolved in DMSO as a 10 mM stock and used to prepare compound source plates. Serial dilution (1:3, 8-point dose-response curves from 10 μM to 0.0045 μM) and compound transfer was performed using the ECHO 550 (Labcyte, Sunnyvale, Calif.) into 96-well clear bottom, black-walled plates (Corning-Costar).
Approximately 2×10^3 SW480 colon cancer cells were seeded into each well and allowed to incubate in the presence or absence of compound for four days at 37° C./5% CO2. Eight replicates of DMSO-treated cells served as controls and cells treated with compound were performed in duplicate.
After incubation, 20 μL of CellTiter-Blue (Promega) was added to each well allowed to incubate for approximately 3 hours. This reagent was a buffered solution which contains resazurin, metabolically active cells were able to reduce rezarurin (blue) into resorufin (pink) which was highly fluorescent. This measured fluorescence was used as a readout for cell viability.
After incubation, the plates were read at Ex 560 nm Em 590 nm (Cytation 3, BioTek). Dose-response curves were generated and EC50 concentration values were calculated using non-linear regression curve fit in the GraphPad Prism (San Diego, Calif.) or Dotmatics' Studies Software (Bishops Stortford, UK). For EC50 of >10 μM, the percent inhibition at 10 μM is provided.
In general terms: The colour change of resazurin is a common sign of viable cells or microbes.

Test [2] deals with primary human fibroblasts derived from IPF patients (LL29 cells), α-smooth muscle actin (αSMA). Briefly: Inhibition of the fibrotic process: TGF-β1-treated primary human fibroblasts from IPF patients, αSMA staining. The settings on record: Fibroblast, 96 h, 4 days; for EC50: LL29 fibroblasts from IPF patients, TGF-β1 20 ng/mL, inhibition of fibrotic process; for inhibition at 10 µM: LL29 fibroblasts, TGF-β1 treated, read-out: percent inhibition at 10 μM (given for EC50 of >10 μM). From the text:
Representative compounds were screened using primary human fibroblasts (derived from IPF patients) treated with TGF-β1 to determine their ability to inhibit the fibrotic process.
Primary human fibroblasts derived from IPF patients (LL29 cells) [^1Xiaoqiu Liu, et. al., “Fibrotic Lung Fibroblasts Show Blunted Inhibition by cAMP Due to Deficient cAMP Response Element-Binding Protein Phosphorylation”, Journal of Pharmacology and Experimental Therapeutics (2005), 315(2), 678-687; ^2Watts, K. L., et. al., “RhoA signaling modulates cyclin D1 expression in human lung fibroblasts; implications for idiopathic pulmonary fibrosis”, Respiratory Research (2006), 7(1), 88] were obtained from American Type Culture Collection (ATCC) and expanded in F12 medium supplemented with 15% Fetal Bovine Serum and Penicillin/Streptomycin.
Each compound was dissolved in DMSO as a 10 mM stock and used to prepare compound source plates. Serial dilution (1:2, 11-point dose-response curves from 10 μM to 1.87 nM) and compound transfer was performed using the ECHO 550 (Labcyte, Sunnyvale, Calif.) into 384-well clear bottom assay plates (Greiner Bio-One) with appropriate DMSO backfill for a final DMSO concentration of 0.1%. LL29 cells are plated at 1,500 cells/well in 80 μL/well F12 medium supplemented with 1% Fetal Bovine Serum. One hour after addition of the cells, TGF-β1 (Peprotech; 20 ng/mL) was added to the plates to induce fibrosis (ref. 1 and 2 above). Wells treated with TGF-β1 and containing DMSO were used as controls. Cells were incubated at 37° C. and 5% CO2 for 4 days. Following incubation for 4 days, SYTOX green nucleic acid stain (Life Technologies [Thermo Fisher Scientific]) was added to the wells at a final concentration of 1 μM and incubated at room temperature for 30 min. Cells were then fixed using 4% formaldehyde (Electron Microscopy Sciences), washed 3 times with PBS followed by blocking and permeabilization using 3% Bovine Serum Albumin (BSA; Sigma) and 0.3% Triton X-100 (Sigma) in PBS. Cells were then stained with antibody specific to α-smooth muscle actin (αSMA; Abcam) (ref. 1 and 2 above) in 3% Bovine Serum Albumin (BSA; Sigma) and 0.3% Triton X-100 (Sigma) in PBS, and incubated overnight at 4° C. Cells were then washed 3 times with PBS, followed by incubation with Alexa Flor-647 conjugated secondary antibody (Life Technologies [Thermo Fisher Scientific]) and DAPI at room temperature for 1 hour. Cells were then washed 3 times with PBS and plates were sealed for imaging. αSMA staining was imaged by excitation at 630 nm and emission at 665 nm and quantified using the Compartmental Analysis program on the CellInsight CX5 (Thermo Scientific). Dead or apoptotic cells were excluded from analysis based on positive SYTOX green staining. % of total cells positive for αSMA were counted in each well and normalized to the average of 11 wells treated with TGF-β1 on the same plate using Dotmatics' Studies Software. The normalized averages (fold change over untreated) of 3 replicate wells for each compound concentration were used to create dose-responses curves and EC50 values were calculated using non-linear regression curve fit in the Dotmatics' Studies Software. For EC50 of >10 μM, the percent inhibition at 10 μM is provided.

In general, inhibition refers to the share of the control response that was lost under treatment. Broadly, the EC50 is the concentration giving half of the maximal effect. A high value points to a need for much substance. With `CCC(=O)Nc1cncc(-c2ccc3[nH]nc(-c4nc5c(-c6cccc(F)c6)ccnc5[nH]4)c3n2)c1` [Compound 1, N-(5-(3-(7-(3-fluorophenyl)-3H-imidazo[4,5-b]pyridin-2-yl)-1H-pyrazolo [4,3-b]pyridin-5-yl)pyridin-3-yl)propionamide], the values for the inhibition at 10 µM (in test [1]; with SW480 colon cancer cells; in test [2]) were 51.6%, 19.9% and 3%, respectively. Moreover, the EC50 (in test [1]; in the test on SW480 colon cancer cells; in test [2]) was above 10 µM in each case.

As for `Fc1cccc(-c2ccnc3[nH]c(-c4n[nH]c5ccc(-c6ccncc6)nc45)nc23)c1` [Compound 18, 3-(7-(3-fluorophenyl)-3H-imidazo[4,5-b]pyridin-2-yl)-5-(pyridin-4-yl)-1H-pyrazolo[4,3-b]pyridine], the results for the inhibition at 10 µM (in test [1]; with SW480 colon cancer cells; in test [2]) were 21%, 0% and 21.4%, respectively. The EC50 (in test [1]; in the test on SW480 colon cancer cells; in test [2]) was above 10 µM throughout.

As to `O=C(Nc1cncc(-c2ccc3[nH]nc(-c4nc5c(-c6cccc(F)c6)ccnc5[nH]4)c3n2)c1)C1CC1` [Compound 20, N-(5-(3-(7-(3-Fluorophenyl)-3H-imidazo[4,5-b]pyridin-2-yl)-1H-pyrazolo [4,3-b]pyridin-5-yl)pyridin-3-yl)cyclopropanecarboxamide], the inhibition at 10 µM in test [1] stood at 51.2%; with SW480 colon cancer cells it was 2.8%; in test [2], 20.2%. The EC50 (in test [1]; with SW480 colon cancer cells; in test [2]) was above 10 µM throughout.

`Fc1cccc(-c2ccnc3[nH]c(-c4n[nH]c5ccc(-c6cncc(CN7CCC(F)(F)C7)c6)nc45)nc23)c1` [Compound 26, 5-(5-((3,3-Difluoropyrrolidin-1-yl)methyl)pyridin-3-yl)-3-(7-(3-fluorophenyl)-3H-imidazo[4,5-b]pyridin-2-yl)-1H-pyrazolo[4,3-b]pyridine]: the EC50 in test [1] is 0.885 µM; with SW480 colon cancer cells, 0.409 µM; in test [2] it was 0.344 µM.

For the molecule `CC(C)(C)C(=O)Nc1cncc(-c2ccc3[nH]nc(-c4nc5c(-c6ccc(F)cc6)ccnc5[nH]4)c3n2)c1` [Compound 36, N-(5-(3-(7-(4-fluorophenyl)-3H-imidazo[4,5-b]pyridin-2-yl)-1H-pyrazolo [4,3-b]pyridin-5-yl)pyridin-3-yl)pivalamide], the inhibition at 10 µM is 28.4% in test [1] and 15% in the test on SW480 colon cancer cells. In addition, the EC50 in test [1] is above 10 µM; in the test with SW480 colon cancer cells it was above 10 µM; in test [2], 2.56 µM.

Take `Fc1ccc(-c2ccnc3[nH]c(-c4n[nH]c5ccc(-c6cncnc6)nc45)nc23)cc1` [Compound 55, 3-(7-(4-Fluorophenyl)-3H-imidazo[4,5-b]pyridin-2-yl)-5-(pyrimidin-5-yl)-1H-pyrazolo[4,3-b]pyridine]: the inhibition at 10 µM in test [1] was 20.2%. The EC50 in test [1] was above 10 µM; in the test with SW480 colon cancer cells it was 0.171 µM; in test [2] it was 0.063 µM.

Turning to `Nc1cncc(-c2ccc3[nH]nc(-c4nc5c(-c6ccccc6F)ccnc5[nH]4)c3n2)c1` [Compound 59, 5-(3-(7-(2-fluorophenyl)-3H-imidazo[4,5-b]pyridin-2-yl)-1H-pyrazolo[4,3-b]pyridin-5-yl)pyridin-3-amine], the inhibition at 10 µM in test [1] stood at 46.5%; in the test on SW480 colon cancer cells it was 21.5%. Moreover, the EC50 in test [1] was above 10 µM; with SW480 colon cancer cells, above 10 µM; in test [2], 2.41 µM.

As for `CC(C)C(=O)Nc1cncc(-c2ccc3[nH]nc(-c4nc5c(-c6ccccc6F)ccnc5[nH]4)c3n2)c1` [Compound 65, N-(5-(3-(7-(2-fluorophenyl)-3H-imidazo[4,5-b]pyridin-2-yl)-1H-pyrazolo [4,3-b]pyridin-5-yl)pyridin-3-yl)isobutyramide], the figures for the inhibition at 10 µM (in test [1]; in the test with SW480 colon cancer cells; in test [2]) were 14.3%, 7.5% and 0%, respectively. In addition, the EC50 (in test [1]; in the test with SW480 colon cancer cells; in test [2]) was above 10 µM each time.

Take `O=C(Nc1cncc(-c2ccc3[nH]nc(-c4nc5c(-c6ccccc6F)ccnc5[nH]4)c3n2)c1)C1CCCC1` [Compound 78, N-(5-(3-(7-(2-fluorophenyl)-3H-imidazo[4,5-b]pyridin-2-yl)-1H-pyrazolo [4,3-b]pyridin-5-yl)pyridin-3-yl)cyclopentanecarboxamide]: the inhibition at 10 µM in test [1] was determined as 39.4%; in the test with SW480 colon cancer cells, 12.3%. The EC50 in test [1] was above 10 µM; in the test with SW480 colon cancer cells it was above 10 µM; in test [2], 2.83 µM.

As to `CC(C)C(=O)Nc1cncc(-c2ccc3[nH]nc(-c4nc5c(-c6cccnc6)ccnc5[nH]4)c3n2)c1` [Compound 93, N-(5-(3-(7-(pyridin-3-yl)-3H-imidazo[4,5-b]pyridin-2-yl)-1H-pyrazolo[4,3-b]pyridin-5-yl)pyridin-3-yl)isobutyramide], the results for the inhibition at 10 µM (in test [1]; in the test with SW480 colon cancer cells; in test [2]) were 10.2%, 8.1% and 0%, respectively. Also, the EC50 (in test [1]; with SW480 colon cancer cells; in test [2]) was above 10 µM each time.

Source of the values: patent US10329309B2, “3-(3H-imidazo[4,5-B]pyridin-2-yl)-1H-pyrazolo[4,3-B]pyridines and therapeutic uses thereof” (Samumed, LLC, priority 2015, dated 2019).
